# Reference: patent US10765114B2, “4-amino-6-(pyridyl and 2-substitutedphenyl)-picolinates and 6-amino-2-(pyridyl and 2-substitutedphenyl)-pyrimidine-4-carboxylates and their use as herbicides” (Dow AgroSciences LLC, priority 2013, dated 2020)
# Where two headings read alike, the source gives them in different places.
# What was measured:
# [1] = system: Key Broadleaf Weed and Crop Species; test: Post-Emergent Test II (Table 5); format: in vivo; settings: post-emergence, 336 h; for pest or weed control at 70 g/ha: application rate 70 (kg ai/ha; footnote: g ai/ha); for pest or weed control at 140 g/ha: application rate 140 (kg ai/ha; footnote: g ai/ha)
# Outline: (§1)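 Post-emergence greenhouse spray, 1st-2nd true leaf stage; track sprayer, 187 L/ha; acetone/DMSO stock diluted in aqueous acetone/IPA/DMSO with Atplus 411F and Triton X-155; rates 1× to 1/16×; subirrigated; visual injury 0 (none) to 100% (complete kill) at 14 days.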
# [2] = system: Key Grass and Sedge Weeds as well as Grass Crops; test: Post-Emergent Test II (Table 6); format: in vivo; settings: post-emergence, 336 h, 14 days after application; for pest or weed control at 70 g/ha: 70 g ai/ha; for pest or weed control at 140 g/ha: 140 g ai/ha
# Outline: as §1
# [3] = Euphorbia heterophylla, EPHHL: wild poinsettia (Euphorbia heterophylla), read-out: Visual Growth Reduction (%) 14 Days After Application EPHHL
# [4] = Viola tricolor, VIOTR: wild pansy (Viola tricolor), read-out: Visual Growth Reduction (%) 14 Days After Application VIOTR
# [5] = CYPSS, read-out: Visual Growth Reduction (%) 14 Days After Application CYPSS
# [6] = DIGSA: crabgrass (Digitaria sanguinalis), read-out: Visual Growth Reduction (%) 14 Days After Application DIGSA
# [7] = ECHSS, read-out: Visual Growth Reduction (%) 14 Days After Application ECHSS
# [8] = ORYSS (crop), read-out: Visual Growth Reduction (%) 14 Days After Application ORYSS
# [9] = SETFA: giant foxtail (Setaria faberi), read-out: Visual Growth Reduction (%) 14 Days After Application SETFA
# [10] = SORVU: grain sorghum (Sorghum vulgare), read-out: Visual Growth Reduction (%) 14 Days After Application SORVU
# [11] = TRZSS (crop), read-out: Visual Growth Reduction (%) 14 Days After Application TRZSS
# [12] = ZEAMX: maize, corn (Zea mays), read-out: Visual Growth Reduction (%) 14 Days After Application ZEAMX
smiles,measurement,setting,value
"COC(=O)c1nc(-c2ccc(C(F)(F)F)nc2)nc(N)c1Cl [Compound 82, methyl 6-amino-5-chloro-2-(6-(trifluoromethyl)pyridin-3-yl)pyrimidine-4-carboxylate]",melting point,,179 to 181 °C
same,pest or weed control at 70 g/ha,[1]; [3],0 to 29%
same,pest or weed control at 140 g/ha,[1]; [3],0 to 29%
same,pest or weed control at 70 g/ha,[1]; [4],0 to 29%
same,pest or weed control at 140 g/ha,[1]; [4],0 to 29%
same,pest or weed control at 70 g/ha,[2]; [5],0 to 29%
same,pest or weed control at 140 g/ha,[2]; [5],0 to 29%
same,pest or weed control at 70 g/ha,[2]; [6],0 to 29%
same,pest or weed control at 140 g/ha,[2]; [6],0 to 29%
same,pest or weed control at 70 g/ha,[2]; [7],0 to 29%
same,pest or weed control at 140 g/ha,[2]; [7],0 to 29%
same,pest or weed control at 70 g/ha,[2]; [8],0 to 29%
same,pest or weed control at 140 g/ha,[2]; [8],0 to 29%
same,pest or weed control at 70 g/ha,[2]; [9],0 to 29%
same,pest or weed control at 140 g/ha,[2]; [9],0 to 29%
same,pest or weed control at 70 g/ha,[2]; [10],0 to 29%
same,pest or weed control at 140 g/ha,[2]; [10],0 to 29%
same,pest or weed control at 70 g/ha,[2]; [11],0 to 29%
same,pest or weed control at 140 g/ha,[2]; [11],0 to 29%
same,pest or weed control at 70 g/ha,[2]; [12],0 to 29%
same,pest or weed control at 140 g/ha,[2]; [12],0 to 29%
